One compound from patent USRE46698E1, “Use of cyclohexanol derivatives as antimicrobial active compounds” (MERCK PATENT GMBH, priority 2011, dated 2018) can be followed below.

Assay [1] deals with S. epidermidis (ATCC 12228). The assay can be described thus: Microbe count determination, bacteriostatic or bactericidal action (Example 5). The class given is cell-based, Staphylococcus epidermidis. Conditions: 24 h at 35° C. The procedure: (§1) For sample preparation, the substances being investigated are each dissolved or homogeneously dispersed in an amount of 1.0% in a water/ethanol mixture (12% of ethanol) (=sample). A bacteria suspension of S. epidermidis (ATCC 12228) having an optical density of 1.0 in CASO broth (Merck 1.05459) is diluted 1:10000 with CASO broth. 500 μl of sample are added to 500 μl of bacteria suspension, and the mixture is incubated at 35° C. for 24 h. After the incubation, the test batches are diluted to −6 in 10 unit steps, and 0.1 ml of each is plated-out on CASO agar (Merck 1.05458) and incubated at 35° C. for 24 h.
(§2) In order to determine the initial microbe count, 0.1 ml of the bacteria suspension used are plated-out on CASO agar (Merck 1.05458) and incubated at 35° C. for 24 h.
(§3) The colonies are subsequently counted, and the microbe count per ml is determined compared with the negative control (12% of ethanol in water).

Assay [2] deals with Candida albicans. The assay can be described thus: Antimicrobial action, microbe count (Example 6). The class given is cell-based. The conditions noted are these: conc. 0.5%; for Δlog: t24 h. The procedure:
as §1, §2, §3
The procedure corresponds to that described in Examples 4 and 5 using the microorganisms shown below. The concentrations indicated are the final use concentrations. In order to prepare the stock solution, double the final concentration were prepared in the solvent indicated. This was subsequently diluted 1:2 with the corresponding microbe suspension. In the case of Aspergillus brasiliensis, the microbe count determination was exceptionally carried out after 48 h.

Where [3] appears, read: H2O (12% of ethanol), count t0 3.4 × 10^4.

Turning to `CCOC(=O)C1CCCCC1O` (stereo not drawn) [Substance I-2], in assay [1] (1.0% sample in 12% ethanol, 500 μl + 500 μl bacteria suspension, initial count 3.8 × 10^4, negative control 5.0 × 10^7), the Final microbe count is on record as 2.9 × 10^4 CFU/ml. Further, the “Note: bacteriostatic or bactericidal action” value in assay [1] (S. epidermidis) is recorded as “bacteriostatic”. For the same compound, in assay [2] (setting [3]), the “Microbe count t24 h” value was 3.0 × 10^2 and the Δlog was −2.05. Moreover, in assay [2] (H2O, count t0 3.8 × 10^5), the “Microbe count t24 h” value is reported as 2.5 × 10^5 and the Δlog was −0.18.
